Assays:
[1] = biological target: human Adenosine A2a receptor (Homo sapiens (Human), UniProt P29274); assay: Adenosine receptor TR-FRET binding assay (A2a); details: inhibition of binding of 100 nM CA200645, CHO cell membranes
Procedure, shortened: (§1)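 Ki values come from Cheng–Prusoff conversion of IC50s for displacement of fluorescent antagonist CA200645 from terbium-labelled human adenosine receptors in CHO membranes. Tracer was 30 nM at A2b and 100 nM at the other three subtypes; incubation lasted 2 h at room temperature.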

[2] = system: CD8+T cells in human whole blood; assay: Measurement of pCREB in CD8+T cells in human whole blood; format: cell-based; details: 3 μM NECA, rolipram
Procedure, shortened: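 Heparinised human whole blood pre-incubated 20 min at 37 °C with serially diluted A2a antagonists plus rolipram, then stimulated 60 min with 3 μM NECA (final). After fixation and red-cell lysis, white cells were permeabilized and stained for phospho-CREB and CD8; pCREB in CD8+ T cells measured by flow cytometry.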

[3] = biological target: human Adenosine A3 receptor (Homo sapiens (Human), UniProt P0DMS8); assay: Adenosine receptor TR-FRET binding assay (A3); details: inhibition of binding of 100 nM CA200645, CHO cell membranes
Procedure, shortened: as §1

[4] = system: immature monocyte-derived dendritic cells (MoDC); assay: MoDC pCREB assay; format: cell-based, human; details: Homo sapiens, Dendritic cell; pCREB in immature MoDC, 1 μM NECA, rolipram
Procedure: Monocytes are isolated from human whole blood using CD14 microbeads (Miltenyi Biotec 130-050-201) and differentiated to immature monocyte-derived dendritic cells (MoDC) by culture for 5 days in Mo-DC Differentiation Medium (Miltenyi Biotec 130-094-812). MoDCs are seeded into fresh medium into U bottomed 96 well culture plates and pre-incubated at 37° C. with serial dilutions of A2A/B antagonists for 15 min. At the same time the cells are co-incubated with the phosphodiesterase inhibitor rolipram (final concentration of 20 µM) to amplify the subsequent pCREB response. Adenosine receptor agonist NECA is then added at 1 μM final concentration, leading to an increase in CREB phosphorylation. Following a 45 min incubation at 37° C., the cells are fixed, permeabilized and stained with directly conjugated fluorescent antibodies to phospho-CREB (Alexa Fluor 488), CD209 (PerCP-Cy5.5) and CD86 (APC). Samples are analysed by FACS to measure fluorescence in corresponding channels, and also forward and Side scatter. The population of CD209+/CD86− low cells corresponding to immature dendritic cells is gated for analysis of pCREB levels.
Approximately 5% of the analysed cells are positive for detection of pCREB in the absence of agonist stimulation, representing the background signalling of all pathways upstream of CREB. Following NECA stimulation this is increased to ˜80% pCREB+ve, and this increase is essentially fully reversible by A2B or dual A2A/B antagonists.
IC50 is represented as the point of inflection of a sigmoidal curve

[5] = biological target: human Adenosine A2b receptor (Homo sapiens (Human), UniProt P29275); assay: Adenosine receptor TR-FRET binding assay (A2b); details: TR-FRET, inhibition of binding of 30 nM CA200645, CHO cell membranes
Procedure, shortened: as §1

[6] = biological target: human Adenosine A1 receptor (Homo sapiens (Human), UniProt P30542); assay: Adenosine receptor TR-FRET binding assay (A1); details: inhibition of binding of 100 nM CA200645, CHO cell membranes
Procedure, shortened: as §1

human PBMCs = assay: CD3/CD28 stimulated IL-2 release NECA reversal assay in human PBMCs; format: cell-based; details: PBMC, 1 uM NECA, 24 hours, IL-2 in culture supernatant
Procedure, shortened: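 PBMCs from citrated healthy-donor blood plated at 50,000 cells/well on 1 ug/ml CD3 antibody with 1 ug/ml CD28 antibody, 1 uM NECA and 0.003-10 μM antagonist (final), 24 h at 37° C. Supernatant IL-2 measured by MSD immunoassay; % inhibition set against no-NECA control wells as 100%.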

human Adenosine A2a receptor, sequence (P29274 whole entry): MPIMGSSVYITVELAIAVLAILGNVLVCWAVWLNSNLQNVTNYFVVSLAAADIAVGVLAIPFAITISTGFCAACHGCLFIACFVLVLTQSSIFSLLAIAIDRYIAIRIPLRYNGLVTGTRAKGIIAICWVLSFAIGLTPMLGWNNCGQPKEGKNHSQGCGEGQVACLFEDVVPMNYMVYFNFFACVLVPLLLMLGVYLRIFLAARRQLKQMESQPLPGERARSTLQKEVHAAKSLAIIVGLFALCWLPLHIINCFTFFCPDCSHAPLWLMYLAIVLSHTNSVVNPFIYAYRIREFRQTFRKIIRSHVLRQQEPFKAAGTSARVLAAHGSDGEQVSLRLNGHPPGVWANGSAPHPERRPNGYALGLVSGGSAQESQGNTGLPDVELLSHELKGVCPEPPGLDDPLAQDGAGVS
human Adenosine A3 receptor, sequence (P0DMS8 whole entry): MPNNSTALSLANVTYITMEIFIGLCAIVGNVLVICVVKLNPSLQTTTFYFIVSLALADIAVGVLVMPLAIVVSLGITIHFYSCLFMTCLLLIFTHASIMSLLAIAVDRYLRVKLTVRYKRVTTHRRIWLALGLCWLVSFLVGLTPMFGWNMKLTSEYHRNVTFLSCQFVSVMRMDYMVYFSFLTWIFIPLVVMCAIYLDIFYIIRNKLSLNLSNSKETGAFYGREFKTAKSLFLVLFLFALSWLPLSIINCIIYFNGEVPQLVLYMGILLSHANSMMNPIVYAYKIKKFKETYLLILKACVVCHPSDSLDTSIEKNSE
human Adenosine A1 receptor, sequence (P30542 whole entry): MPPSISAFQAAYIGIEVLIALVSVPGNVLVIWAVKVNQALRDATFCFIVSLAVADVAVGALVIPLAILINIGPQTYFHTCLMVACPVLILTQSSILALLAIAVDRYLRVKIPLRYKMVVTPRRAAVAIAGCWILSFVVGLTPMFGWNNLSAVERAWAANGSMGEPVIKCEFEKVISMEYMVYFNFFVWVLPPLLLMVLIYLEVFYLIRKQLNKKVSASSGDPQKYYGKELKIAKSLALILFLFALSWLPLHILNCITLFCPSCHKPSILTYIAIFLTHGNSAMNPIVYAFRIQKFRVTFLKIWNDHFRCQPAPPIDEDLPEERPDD
human Adenosine A2b receptor, sequence (P29275 whole entry): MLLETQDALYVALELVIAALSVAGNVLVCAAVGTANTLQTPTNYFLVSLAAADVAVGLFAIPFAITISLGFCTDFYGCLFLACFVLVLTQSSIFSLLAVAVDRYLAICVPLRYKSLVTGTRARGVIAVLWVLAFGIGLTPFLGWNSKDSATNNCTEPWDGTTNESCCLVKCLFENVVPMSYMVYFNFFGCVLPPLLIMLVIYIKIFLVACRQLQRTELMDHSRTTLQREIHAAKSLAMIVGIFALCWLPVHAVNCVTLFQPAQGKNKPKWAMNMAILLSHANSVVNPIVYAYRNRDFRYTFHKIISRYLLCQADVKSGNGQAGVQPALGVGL

| Structure (SMILES) | Ki [1] | IC50 [2] | Ki [3] | IC50 [4] | Ki [5] | Ki [6] | IC50 (human PBMCs) |
| --- | --- | --- | --- | --- | --- | --- | --- |
| Cc1cc(-c2sc(NC(=O)N3CCC(C)(C#N)CC3)nc2-c2cccc(C#N)c2)cc(Cl)n1 [Example 3.8] | 0.09 nM | 750 nM | 538 nM | 11 nM | 0.9 nM | 116 nM | 1 nM |
| Cc1cc(-c2sc(NC(=O)N3CCC(C#N)CC3)nc2-c2cccc(C#N)c2)cc(C)n1 [Example 4.1, 4-Cyano-N-[4-(3-cyanophenyl)-5-(2,6-dimethyl-4-pyridyl)thiazol-2-yl]piperidine-1-carboxamide] | 0.11 nM | 10 nM | 145 nM | 15 nM | 0.6 nM | 11 nM | 0.3 nM |
| Cc1cc(-c2sc(NC(=O)N3CCN(C4COC4)CC3)nc2-c2cccc(C#N)c2)cc(C)n1 [Example 4.4, N-[4-(3-Cyanophenyl)-5-(2,6-dimethyl-4-pyridyl)thiazol-2-yl]-4-(oxetan-3-yl)piperazine-1-carboxamide] | 0.86 nM | 170 nM | 568 nM | 95 nM | 4.5 nM | 263 nM | 6.2 nM |
| Cc1cc(-c2sc(NC(=O)N3CC[C@H](C#N)C3)nc2-c2cccc(C#N)c2)cc(C)n1 [Example 4.8, (3S)-3-Cyano-N-[4-(3-cyanophenyl)-5-(2,6-dimethyl-4-pyridyl)thiazol-2-yl]pyrrolidine-1-carboxamide] | 0.37 nM | 40 nM | 180 nM | 12 nM | 1.5 nM | 17 nM | 1.1 nM |

The next lines start with results.

| Ki [1] | IC50 [2] | Ki [3] | IC50 [4] | Ki [5] | Ki [6] | Structure (SMILES) | IC50 (human PBMCs) |
| --- | --- | --- | --- | --- | --- | --- | --- |
| 0.14 nM | 50 nM | 133 nM | 26 nM | 1.5 nM | 9 nM | Cc1cc(-c2sc(NC(=O)N3CC(C)(O)C3)nc2-c2cccc(C#N)c2)cc(C)n1 [Example 4.9, N-[4-(3-Cyanophenyl)-5-(2,6-dimethyl-4-pyridyl)thiazol-2-yl]-3-hydroxy-3-methyl-azetidine-1-carboxamide] | 3.2 nM |
| 0.26 nM | 50 nM | 389 nM | 18 nM | 1.1 nM | 31 nM | Cc1cc(-c2sc(NC(=O)N3CC4(COC4)C3)nc2-c2cccc(C#N)c2)cc(C)n1 [Example 4.12, N-[4-(3-Cyanophenyl)-5-(2,6-dimethyl-4-pyridyl)thiazol-2-yl]-2-oxa-6-azaspiro[3.3]heptane-6-carboxamide] | 2 nM |
| 0.1 nM | 110 nM | 165 nM | 11 nM | 0.9 nM | 35 nM | COC1(C#N)CCN(C(=O)Nc2nc(-c3cccc(C#N)c3)c(-c3cc(C)nc(C)c3)s2)CC1 [Example 4.22, 4-Cyano-N-[4-(3-cyanophenyl)-5-(2,6-dimethyl-4-pyridyl)thiazol-2-yl]-4-methoxy-piperidine-1-carboxamide] | 1.1 nM |
| 0.2 nM | 30 nM | 267 nM | 20 nM | 0.7 nM | 54 nM | Cc1cc(-c2sc(NC(=O)N3CCC(C#N)(CO)CC3)nc2-c2cccc(C#N)c2)cc(C)n1 [Example 4.23, 4-Cyano-N-[4-(3-cyanophenyl)-5-(2,6-dimethyl-4-pyridyl)thiazol-2-yl]-4-(hydroxymethyl)piperidine-1-carboxamide] | 0.6 nM |
| 0.18 nM | 80 nM | 383 nM | 79 nM | 2.4 nM | 15 nM | Cc1cc(-c2sc(NC(=O)N3CC[S+]([O-])CC3)nc2-c2cccc(C#N)c2)cc(C)n1 [Example 4.24, N-[4-(3-Cyanophenyl)-5-(2,6-dimethyl-4-pyridyl)thiazol-2-yl]-1-oxo-1,4-thiazinane-4-carboxamide] | 2.8 nM |

Reference: US20230293517A1, “ANTAGONIST COMPOUNDS” (AdoRx Therapeutics Limited, priority 2020, published 2023)
